Reference: patent US8962842B2, “2-pyridone antimicrobial compositions” (priority 2010, dated 2015)
Like-named read-outs stand apart in the source and are kept apart here.

Assays:
[1] = tested on: Streptococcus pyogenes (4 strains); assay: MIC range, broader panel of Quotient Bioresearch strains (Table 3)
human topoisomerase I = target: T1, human topoisomerase I (Homo sapiens, UniProt P11387); assay: Inhibition of topoisomerases activity in vitro, Topogen protocol TG1015 (Table 7); type: biochemical; conditions: read-out: IC50 hTopo I Assay
T1 construct: purchased Topogen Inc., Port Orange, USA TG1015
T1 sequence (P11387 1-765): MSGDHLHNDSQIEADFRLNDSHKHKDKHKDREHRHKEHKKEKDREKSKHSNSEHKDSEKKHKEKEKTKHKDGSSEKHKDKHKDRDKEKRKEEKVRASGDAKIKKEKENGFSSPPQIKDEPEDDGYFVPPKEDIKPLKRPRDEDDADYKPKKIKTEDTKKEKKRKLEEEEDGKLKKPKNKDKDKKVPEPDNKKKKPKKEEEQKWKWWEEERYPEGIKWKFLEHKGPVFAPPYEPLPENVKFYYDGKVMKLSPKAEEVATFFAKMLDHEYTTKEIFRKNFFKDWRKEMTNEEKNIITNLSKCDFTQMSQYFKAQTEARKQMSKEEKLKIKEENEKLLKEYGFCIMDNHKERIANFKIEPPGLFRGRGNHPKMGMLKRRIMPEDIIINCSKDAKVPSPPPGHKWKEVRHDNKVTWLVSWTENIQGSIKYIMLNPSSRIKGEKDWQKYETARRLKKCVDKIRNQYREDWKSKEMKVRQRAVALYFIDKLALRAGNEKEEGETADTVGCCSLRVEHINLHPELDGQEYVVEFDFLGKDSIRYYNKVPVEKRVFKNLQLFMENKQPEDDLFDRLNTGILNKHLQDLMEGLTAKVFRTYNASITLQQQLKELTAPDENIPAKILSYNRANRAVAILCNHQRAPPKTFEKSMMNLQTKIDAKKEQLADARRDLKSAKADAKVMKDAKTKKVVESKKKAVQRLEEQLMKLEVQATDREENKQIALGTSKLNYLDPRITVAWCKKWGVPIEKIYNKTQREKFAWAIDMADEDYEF

[2] = tested on: Staphylococcus aureus (16 strains); assay: MIC range, broader panel of Quotient Bioresearch strains (Table 3)
[3] = tested on: Enterococcus faecium (3 strains); assay: as above
[4] = tested on: Streptococcus pneumonia (5 strains); assay: as above; conditions: Streptococcus pneumoniae
[5] = tested on: Klebsiella pneumonia (4 strains); assay: MIC range, broader panel of Quotient Bioresearch strains (Table 4); type: cell-based; conditions: Klebsiella pneumoniae
[6] = tested on: Escherichia coli (6 strains); assay: as above; type: cell-based
[7] = tested on: Staphylococcus aureus, quinolone-resistant strains (Quotient Bioresearch catalogue); assay: MIC against pathogens resistant against quinolones (Table 5); conditions: strain GP82, Staphylococcus aureus levofloxacin-resistant clinical isolate, amino acid changes GrlA, GrlB & GyrA
[8] = tested on: Burkholderia cepacia (5 strains); assay: MIC range, broader panel of Quotient Bioresearch strains (Table 4); type: cell-based
[9] = tested on: Enterococcus faecalis (5 strains); assay: MIC range, broader panel of Quotient Bioresearch strains (Table 3)
[10] = tested on: Haemophilus influenza (5 strains); assay: MIC range, broader panel of Quotient Bioresearch strains (Table 4); type: cell-based, Haemophilus influenzae
[11] = tested on: Acinetobacter baumannii, quinolone-resistant strains (Quotient Bioresearch catalogue); assay: MIC against pathogens resistant against quinolones (Table 5); type: cell-based; conditions: Acinetobacter baumannii, GN54
physchem = type: physicochemical; conditions: thermodynamic from solid
Experimental: The solutions were incubated at room temperature for 24 hours before quantification by HPLC detection. Aqueous solubility was evaluated in simulated gastric fluid (SGF), simulated intestinal fluid (SIF) and phosphate buffer saline (PBS) pH 7.4. Aqueous solubility is expressed in Table 11 as mean solubility in μM.

[12] = Metabolic stability in liver microsomes +/- S9 fraction (Table 8); type: in vitro ADME; conditions: 1 μM
Experimental: Metabolic stability of a select number of examples was tested in liver microsomes+/−addition of S9 fraction as described by Kuhnz, W. and Gieschen, H. (1998), Drug Metab. Dispos., 1120-1127. Test concentration was 1 μM and HPLC/MS-MS was used for detection.

[13] = target: bacterial topoisomerase IV (Escherichia coli, UniProt P0AFI2+P20083); assay: Inhibition of topoisomerases activity in vitro, Topogen protocol TG1007 (Table 7); type: biochemical
Sequence of bacterial topoisomerase IV (P20083 whole entry): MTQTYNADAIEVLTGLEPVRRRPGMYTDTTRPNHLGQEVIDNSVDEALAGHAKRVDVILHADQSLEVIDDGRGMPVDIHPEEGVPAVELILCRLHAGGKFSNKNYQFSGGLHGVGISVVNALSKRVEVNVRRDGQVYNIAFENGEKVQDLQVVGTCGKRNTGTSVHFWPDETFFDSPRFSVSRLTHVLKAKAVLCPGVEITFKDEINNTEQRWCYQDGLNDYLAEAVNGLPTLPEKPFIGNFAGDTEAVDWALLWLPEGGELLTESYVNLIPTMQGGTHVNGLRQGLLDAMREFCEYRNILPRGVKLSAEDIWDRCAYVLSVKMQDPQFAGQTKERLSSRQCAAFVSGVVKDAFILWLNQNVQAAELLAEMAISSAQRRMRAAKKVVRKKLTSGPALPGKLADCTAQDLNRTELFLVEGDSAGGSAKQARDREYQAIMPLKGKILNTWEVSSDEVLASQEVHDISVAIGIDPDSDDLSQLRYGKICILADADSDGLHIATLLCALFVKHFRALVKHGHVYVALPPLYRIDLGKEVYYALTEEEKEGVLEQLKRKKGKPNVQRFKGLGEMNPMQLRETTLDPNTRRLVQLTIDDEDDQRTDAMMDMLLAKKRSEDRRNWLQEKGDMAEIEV
Sequence of bacterial topoisomerase IV (P0AFI2 whole entry): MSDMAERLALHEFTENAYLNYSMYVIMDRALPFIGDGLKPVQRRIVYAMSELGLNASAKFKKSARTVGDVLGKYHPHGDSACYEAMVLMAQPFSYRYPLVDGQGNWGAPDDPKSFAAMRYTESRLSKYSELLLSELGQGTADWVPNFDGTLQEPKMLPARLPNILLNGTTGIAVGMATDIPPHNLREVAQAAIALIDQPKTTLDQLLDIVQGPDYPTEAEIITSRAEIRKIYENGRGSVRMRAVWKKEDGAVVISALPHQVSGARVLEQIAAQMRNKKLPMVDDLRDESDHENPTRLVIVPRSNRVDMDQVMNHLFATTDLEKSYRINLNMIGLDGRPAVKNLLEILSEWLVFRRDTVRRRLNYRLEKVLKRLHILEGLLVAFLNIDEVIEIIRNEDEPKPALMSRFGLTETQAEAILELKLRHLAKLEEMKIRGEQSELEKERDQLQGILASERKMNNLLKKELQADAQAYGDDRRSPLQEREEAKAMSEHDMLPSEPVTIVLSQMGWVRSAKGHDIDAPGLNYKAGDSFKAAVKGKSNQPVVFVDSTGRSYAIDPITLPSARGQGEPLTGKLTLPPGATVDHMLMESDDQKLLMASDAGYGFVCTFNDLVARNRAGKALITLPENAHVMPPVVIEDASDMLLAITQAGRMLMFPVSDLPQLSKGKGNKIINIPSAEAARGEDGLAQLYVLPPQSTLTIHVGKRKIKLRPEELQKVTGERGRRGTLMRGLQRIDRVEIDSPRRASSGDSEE

[14] = tested on: Bacterial strains injected into thigh muscles; type: in vivo, mice; conditions: 30 mg/kg TDS p.o.
bacterial gyrase = bacterial gyrase (Escherichia coli, UniProt P0AES4+P0AES6); assay: Inhibition of topoisomerases activity in vitro, Topogen protocol TG1003 (Table 7); type: biochemical
Sequence of bacterial gyrase (P0AES4 whole entry, one chain of several): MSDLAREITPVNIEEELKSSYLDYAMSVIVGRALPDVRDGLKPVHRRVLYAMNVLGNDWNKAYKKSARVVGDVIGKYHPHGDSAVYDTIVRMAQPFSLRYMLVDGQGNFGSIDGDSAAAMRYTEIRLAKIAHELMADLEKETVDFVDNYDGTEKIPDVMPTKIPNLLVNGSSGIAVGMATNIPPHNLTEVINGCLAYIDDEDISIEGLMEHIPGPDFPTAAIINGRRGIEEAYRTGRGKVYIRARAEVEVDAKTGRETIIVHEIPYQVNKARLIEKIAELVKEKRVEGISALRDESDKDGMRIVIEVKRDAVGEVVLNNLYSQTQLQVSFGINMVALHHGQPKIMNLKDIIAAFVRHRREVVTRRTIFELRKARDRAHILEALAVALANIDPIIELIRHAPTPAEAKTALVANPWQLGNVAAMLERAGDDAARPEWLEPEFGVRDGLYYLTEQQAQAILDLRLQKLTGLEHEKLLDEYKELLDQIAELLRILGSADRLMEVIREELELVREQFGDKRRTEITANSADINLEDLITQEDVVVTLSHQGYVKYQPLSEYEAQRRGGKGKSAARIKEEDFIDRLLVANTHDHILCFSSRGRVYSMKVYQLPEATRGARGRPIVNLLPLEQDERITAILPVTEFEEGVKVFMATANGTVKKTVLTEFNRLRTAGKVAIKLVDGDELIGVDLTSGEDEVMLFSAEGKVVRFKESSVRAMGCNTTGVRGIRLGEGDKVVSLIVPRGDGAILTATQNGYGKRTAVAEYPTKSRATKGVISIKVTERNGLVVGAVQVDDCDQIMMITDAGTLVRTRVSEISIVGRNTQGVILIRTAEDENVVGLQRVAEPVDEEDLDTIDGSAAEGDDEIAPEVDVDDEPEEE

[15] = tested on: Acinetobacter baumannii (12 strains); assay: MIC range, broader panel of Quotient Bioresearch strains (Table 4); type: cell-based
[16] = tested on: Pseudomonas aeruginosa (12 strains); assay: as above; type: cell-based

## Cc1c(-c2ccc3[nH]ncc3c2)ccn2c(=O)c(C(=O)[O-])cc(C3CC3)c12.[K+] [Example 23 K salt, potassium 1-cyclopropyl-8-(1H-indazol-5-yl)-9-methyl-4-oxo-4H-quinolizine-3-carboxylate]
[1]; read-out: MIC Range High, Streptococcus pyogenes (4 strains)
  MIC: 0.03 µg/mL
[1]; read-out: MIC Range Low, Streptococcus pyogenes (4 strains)
  MIC: ≤ 0.015 µg/mL
[1]; read-out: MIC Range Median, Streptococcus pyogenes (4 strains)
  MIC50: 0.03 µg/mL
Human topoisomerase I
  IC50: > 140 µM
[2]; read-out: MIC Range High, Staphylococcus aureus (16 strains)
  MIC: 0.12 µg/mL
[2]; read-out: MIC Range Median, Staphylococcus aureus (16 strains)
  MIC50: 0.03 µg/mL
[3]; read-out: MIC Range Low, Enterococcus faecium (3 strains)
  MIC: 0.06 µg/mL
[3]; read-out: MIC Range Median, Enterococcus faecium (3 strains)
  MIC50: 0.25 µg/mL
[4]; read-out: MIC Range Low, Streptococcus pneumonia (5 strains)
  MIC: ≤ 0.015 µg/mL
[4]; read-out: MIC Range Median, Streptococcus pneumonia (5 strains)
  MIC50: 0.03 µg/mL
[5]; read-out: MIC Range High, Klebsiella pneumonia (4 strains)
  MIC: 16 µg/mL
[5]; read-out: MIC Range Low, Klebsiella pneumonia (4 strains)
  MIC: 0.06 µg/mL
[5]; read-out: MIC Range Median, Klebsiella pneumonia (4 strains)
  MIC50: 5 µg/mL
[6]; read-out: MIC Range High, Escherichia coli (6 strains)
  MIC: 16 µg/mL
[6]; read-out: MIC Range Low, Escherichia coli (6 strains)
  MIC: ≤ 0.015 µg/mL
[6]; read-out: MIC Range Median, Escherichia coli (6 strains)
  MIC50: 4 µg/mL
[7]
  MIC: ≤ 0.015 µg/mL
[8]; read-out: MIC Range High, Burkholderia cepacia (5 strains)
  MIC: 0.25 µg/mL
[8]; read-out: MIC Range Low, Burkholderia cepacia (5 strains)
  MIC: ≤ 0.015 µg/mL
[8]; read-out: MIC Range Median, Burkholderia cepacia (5 strains)
  MIC50: 0.06 µg/mL
[9]; read-out: MIC Range Low, Enterococcus faecalis (5 strains)
  MIC: ≤ 0.015 µg/mL
[9]; read-out: MIC Range Median, Enterococcus faecalis (5 strains)
  MIC50: ≤ 0.015 µg/mL
[10]; 16 h, Median of the strain panel
  MIC50: ≤ 0.015 µg/mL
[10]; High of the strain panel, read-out: MIC Range High, Haemophilus influenza (5 strains)
  MIC: ≤ 0.015 µg/mL
[10]; Low of the strain panel, read-out: MIC Range Low, Haemophilus influenza (5 strains)
  MIC: ≤ 0.015 µg/mL
[11]
  MIC: 1 µg/mL
physchem; fassgf or other biorelevant
  solubility at 24 h: 105 µM
physchem; pH 7.4, aqueous buffer
  solubility at 24 h: 37 µM
physchem; simulated gastric fluid
  solubility at 24 h: 8 µM
[12]; Liver microsomes + S9, human
  Mean Parent Remaining: 80%
[12]; Liver microsomes + S9, mouse
  Mean Parent Remaining: 2%
[12]; Liver microsomes, human
  Mean Parent Remaining: 67%
[12]; Liver microsomes, mouse
  Mean Parent Remaining: 2%
[13]
  IC50: 4.34 µM
[14]; E. coli ATCC 25922, mouse thigh
  Log reduction (LgR) from vehicle control (CFU/g): 2.82
[14]; MRSA ATCC 43300, mouse thigh
  Log reduction (LgR) from vehicle control (CFU/g): 4.66
Bacterial gyrase
  IC50: ≤ 1.39 µM
[15]; read-out: MIC Range High, Acinetobacter baumannii (12 strains)
  MIC: 8 µg/mL
[15]; read-out: MIC Range Low, Acinetobacter baumannii (12 strains)
  MIC: 0.03 µg/mL
[15]; read-out: MIC Range Median, Acinetobacter baumannii (12 strains)
  MIC50: 3 µg/mL
[16]; read-out: MIC Range High, Pseudomonas aeruginosa (12 strains)
  MIC: 16 µg/mL
[16]; read-out: MIC Range Low, Pseudomonas aeruginosa (12 strains)
  MIC: 0.25 µg/mL
[16]; read-out: MIC Range Median, Pseudomonas aeruginosa (12 strains)
  MIC50: 2 µg/mL
